Data from the supplement of paper PMC10307832.

Key:
Assay in all cases: relative viability (nuclei count vs DMSO), 5 days (fraction); higher = more cells survive
GW-2580 + Lapatinib = compound: COC1=CC=C(C=C1)COC2=C(C=C(C=C2)CC3=CN=C(N=C3N)N)OC [GW-2580] + CS(=O)(=O)CCNCc1ccc(-c2ccc3ncnc(Nc4ccc(OCc5cccc(F)c5)c(Cl)c4)c3c2)o1 [Lapatinib] (partner 2 µM)
Summary of the method: (§1)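 Lung cancer cell lines in 1536-well plates were dosed by pin tool the day after seeding, either with one drug alone or with a fixed anchor-drug dose plus five library-drug doses (not always all listed) in √10 steps. After 5 days, cells were fixed and their nuclei stained in one step (final 0.05% Triton X-100, 1% formaldehyde, 1 ug/ml Hoechst), then counted on 4× images. Relative viability is the nuclei count in treated wells divided by that in vehicle wells. Values are medians of duplicate plates.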

GW-2580 + Pictilisib = compound: COC1=CC=C(C=C1)COC2=C(C=C(C=C2)CC3=CN=C(N=C3N)N)OC [GW-2580] + CS(=O)(=O)N1CCN(Cc2cc3nc(-c4cccc5[nH]ncc45)nc(N4CCOCC4)c3s2)CC1 [Pictilisib] (partner 1 µM)
Summary of the method: as §1

Fedratinib + Luminespib = compound: Cc1cnc(Nc2ccc(OCCN3CCCC3)cc2)nc1Nc1cccc(S(=O)(=O)NC(C)(C)C)c1 [Fedratinib] + CCNC(=O)c1noc(-c2cc(C(C)C)c(O)cc2O)c1-c1ccc(CN2CCOCC2)cc1 [Luminespib] (partner 0.01 µM)
Summary of the method: as §1

Fedratinib + Lapatinib = compound: Cc1cnc(Nc2ccc(OCCN3CCCC3)cc2)nc1Nc1cccc(S(=O)(=O)NC(C)(C)C)c1 [Fedratinib] + CS(=O)(=O)CCNCc1ccc(-c2ccc3ncnc(Nc4ccc(OCc5cccc(F)c5)c(Cl)c4)c3c2)o1 [Lapatinib] (partner 2 µM)
Summary of the method: as §1

Fedratinib + Alpelisib = compound: Cc1cnc(Nc2ccc(OCCN3CCCC3)cc2)nc1Nc1cccc(S(=O)(=O)NC(C)(C)C)c1 [Fedratinib] + Cc1nc(NC(=O)N2CCC[C@H]2C(N)=O)sc1-c1ccnc(C(C)(C)C(F)(F)F)c1 [Alpelisib] (partner 2 µM)
Summary of the method: as §1

Fedratinib + Phenformin = compound: Cc1cnc(Nc2ccc(OCCN3CCCC3)cc2)nc1Nc1cccc(S(=O)(=O)NC(C)(C)C)c1 [Fedratinib] + N=C(N)NC(=N)NCCc1ccccc1 [Phenformin] (partner 250 µM)
Summary of the method: as §1

Row | Cell Line | relative viability (GW-2580 + Lapatinib; first compound 0.08 µM) | relative viability (GW-2580 + Lapatinib; first compound 0.8 µM) | relative viability (GW-2580 + Lapatinib; first compound 8 µM) | relative viability (GW-2580 + Pictilisib; first compound 0.08 µM) | relative viability (GW-2580 + Pictilisib; first compound 0.8 µM) | relative viability (GW-2580 + Pictilisib; first compound 8 µM) | relative viability (Fedratinib + Luminespib; first compound 0.1 µM) | relative viability (Fedratinib + Luminespib; first compound 0.3162 µM) | relative viability (Fedratinib + Luminespib; first compound 1 µM) | relative viability (Fedratinib + Lapatinib; first compound 0.1 µM) | relative viability (Fedratinib + Lapatinib; first compound 0.3162 µM) | relative viability (Fedratinib + Lapatinib; first compound 1 µM) | relative viability (Fedratinib + Alpelisib; first compound 0.1 µM) | relative viability (Fedratinib + Alpelisib; first compound 0.3162 µM) | relative viability (Fedratinib + Alpelisib; first compound 1 µM) | relative viability (Fedratinib + Phenformin; first compound 0.1 µM) | relative viability (Fedratinib + Phenformin; first compound 0.3162 µM) | relative viability (Fedratinib + Phenformin; first compound 1 µM) | relative viability (GW-2580 + Lapatinib; first compound 2.53 µM) | relative viability (GW-2580 + Pictilisib; first compound 2.53 µM)
1 | NCI-H1993 | 0.775 | 0.904 | 0.907 | 0.827 | 0.804 | 0.655 | 0.679 | 0.85 | 1.1 | 0.725 | 0.82 | 0.608 | 0.612 | 0.755 | 0.65 | 0.508 | 0.476 | 0.493 | – | –
2 | RERF-LC-KJ | 0.895 | 0.909 | 0.884 | 0.553 | 0.404 | 0.515 | 1.13 | 1.24 | 1.17 | 0.879 | 0.844 | 0.838 | 0.792 | 0.86 | 0.756 | 0.384 | 0.433 | 0.373 | 0.736 | 0.478
3 | NCI-H23 | 1.03 | 1.09 | 1.25 | 0.632 | 0.46 | 0.502 | 0.193 | 0.212 | 0.204 | 1.23 | 1.03 | 0.319 | 0.585 | 0.743 | 0.598 | 0.772 | 0.81 | 0.716 | 0.936 | 0.367
4 | EMC-BAC-2 | 0.909 | 0.95 | 0.901 | 0.577 | 0.618 | 0.519 | 1.27 | 1.12 | 1.18 | 1 | 0.901 | 0.909 | 0.85 | 0.754 | 0.711 | 0.404 | 0.523 | 0.421 | 0.84 | 0.452
5 | NCI-H2405 | 1.05 | 1.16 | 0.912 | 0.432 | 0.505 | 0.529 | 0.57 | 0.701 | 0.562 | 0.91 | 1.07 | 0.753 | 0.626 | 0.824 | 0.698 | 0.315 | 0.412 | 0.446 | 1.02 | 0.319
6 | NCI-H358 | 0.499 | 0.484 | 0.409 | 0.356 | 0.32 | 0.308 | 0.578 | 0.2 | 0.307 | 0.366 | 0.369 | 0.334 | 0.773 | 0.768 | 0.466 | 0.304 | 0.323 | 0.252 | 0.409 | 0.28
7 | NCI-H1944 | 0.843 | 0.98 | 0.897 | 0.35 | 0.324 | 0.278 | 0.741 | 0.801 | 0.763 | 0.816 | 0.803 | 0.615 | 0.804 | 0.945 | 0.716 | 0.194 | 0.228 | 0.213 | 0.82 | 0.343
